Results as given in patent publication US20120258113A1, “SUSBSTANTIALLY PURE STEROIDOGENESIS INDUCING PEPTIDE AND USES THEREOF” (CLARK ATLANTA UNIVERSITY, priority 2006, published 2012).
Entries after “also recorded” stand apart in the source; their conditions may differ.

Assays:
Leydig cells = test: Effect of kinase inhibitors on SIP-stimulated DNA synthesis in Leydig cells; assay type: cell-based, rat; settings: PD98059 25 μM; LY294002 5 μM; with SIP
Experimental: (§1) Immature rat Leydig cells and various cancer cell lines were starved for 48 hours before treatment. The cells were then treated with SIP, the polypeptide having the amino acid sequence identified as SEQ ID NO:2, LH, and EGF for 18 hours. The incubation media were collected (Leydig cells) and analyzed for total androgen production. ^3H-thymidine (1 μCi/ml) was added to the cells for further 4 hours incubation. Then the hot media were removed; ice-cold water was added to the cells which were lysed by sonication. The cell lysates were filterd through DE81 ion-exchanger filters. The filter membranes were then put in vials filled with scintillation fluid, and the radioactivity was measured by a Beckman β-counter.
Immature Leydig cells were cultured for 18 h and treated with different concentrations of oLH, SIP and EGF. For some experiments, the cells were treated with oLH or SIP for 18 h in the absence or presence of inhibitors of tyrosine kinase (Genistein; 10 uM), MAPK-kinase (PD98059; 25 μM), PI3-kinase (LY294002; 5 μM) or PKA (H89; 10 μM) to determine the intracellular signaling pathways involved in the effects of SIP on androgen production. The incubation media were collected and analyzed for total androgens using a radioimmunoassay, as described previously (Dickson et al., 2002). […] All samples were analyzed in the same assay, and the intra-assay coefficient of variation was <10%.

PI3-kinase/AKT pathway = test: Activation of PI3-kinase/AKT pathway in rat Leydig cells (activation specific antibodies); assay type: cell-based; settings: 30 min
Experimental: (§2) To determine the effects of SIP and EGF on activation of proteins involved in either MAP-kinase or PI3-kinase signaling pathway, immature Leydig cells were cultured in 6-well plates. The cells were washed and treated with SIP (50 μg/ml) or EGF (10 ng/ml) for 30 min in the presence or absence of inhibitors of MAPK-kinase (PD98059; 25 μM) or PI3-kinase (LY294002; 5 μM). The cells were washed twice with ice-cold phosphate-buffered saline and lysed in lysis buffer (Cell Signaling Technology, Beverly, Mass.) containing 20 mM Tris-HCl (pH 7.5), 150 mM NaCl, 1 mM Na2EDTA, 1 mM EGTA, 1% Triton, 2.5 mM sodium pyrophosphate, 1 mM β-glycerophosphate, 1 mM Na3VO4, 1 μg/ml leupeptin and 1× protease inhibitor cocktail (Calbiochem, San Diego, Calif.). Protein concentrations were determined by the Lowry HS assay using the Bio-Rad DCProtein Assay kit (Bio-Rad, Hercules, Calif.) according to the instruction provided by the manufacturer. Cell lysates were mixed with Lammeli's buffer (62.5 mM Tris, pH 6.8, 2% SDS, 5% β-mercaptoethanol and 10% glycerol), and individual samples (25 μg protein) were subjected to SDS-PAGE in 10% gels and transferred to PVDF membranes (Millipore). The membranes were blocked overnight at 4° C. in TBST (50 mM Tris, pH 7.5, containing 0.15M NaCl, 0.05% Tween-20 and 4% fat-free skimmed milk). […]

[1] = system: MAP-kinase signaling pathway (Ras, MEK, ERK); test: Activation of MAP-kinase signaling pathway in Leydig cells (activation specific immunoblots); assay type: cell-based, rat; settings: 30 minutes
Experimental: as §2

[2] = system: human ovarian epithelial cancer (HEY) cells; test: Thymidine incorporation assay (DNA synthesis) in HEY cells; assay type: cell-based; settings: different doses of peptide
Experimental: (§3) Ovarian (HEY, SKA), prostate (DU145, PC3) and breast (MCF7) cancer cell lines were cultured and maintained using well-established culture procedures.
as §1

StAR mRNA = StAR mRNA expression in rat Leydig cells (RT-PCR); assay type: cell-based; settings: Leydig cells treated for 24 hour
Experimental: Total RNA was isolated from Leydig cells using TRIzol (Invitrogen, Carlsbad, Calif.) followed by chloroform extraction and isopropanol precipitation. Two micrograms of total RNA were reverse transcribed at 37° C. for 1 h in a reaction mixture containing 0.5 mM dNTP (Fisher Scientific), 400 U of M-MLV Reverse Transcriptase (Promega), 1×RT buffer, 0.5 mM dithiotreitol (Bio-Rad) and 0.5 μg of oligo dT (Promega). After incubation, the RT enzyme was heat inactivated at 70° C. for […] and the reaction cooled to 4° C. Four microliters of RT reactions were added to separate PCR reaction mixtures (total 10 μl) containing 0.1 mM dNTPs, (Fisher), 0.5 U Tag DNA polymerase (PGC Scientifics, Frederick, Md.), 1×PCR buffer with 3 mM MgC12 (Idaho Technology, Salt Lake City, Utah) and […] of the specific primers for the following genes: scavenger receptor B type 1 (SR-B1), cytochrome P450 cholesterol side-chain cleavage (P450scc), 3β-hydroxysteroid dehydrogenase (3β-HSD), 17 alpha-hydroxylase/C17-20 lyase (P450c17) and steroidogenic acute regulatory (StAR) protein. L19 (a ribosomal protein) primer pair was used as internal control. The following protocol was used in the Rapid Cycler thermal cycler (Idaho Technology): 94° C. for 15 s (initial denaturation), followed by 94° C. for 0 s, 60° C. for 0 s, 72° C. for 20 s for 35 cycles, and 72° C. for 30 s (final extension). […]

rat Leydig cells = test: Testosterone production by rat Leydig cells (radioimmunoassay); assay type: cell-based; settings: cultured 6, 24 or 48 hours; for testosterone production: radioimmunoassay
Experimental: Immature rat Leydig cells (ILC) were isolated from 10-day old rat testes and cultured with serum-free medium before treatment. Immature rats were sacrificed at 10 days of age, and the testes were removed Immature Leydig cells were isolated and cultured. The decapsulated testes were incubated for 5 min in culture medium containing 0.25 mg collagenase/ml (Type I, Sigma) in shaking water bath. The seminiferous tubules were allowed to settle at unit gravity for 5 min, and the supernatant containing the suspension of interstitial cells was removed. The supernatant was centrifuged at 90×g for 10 min, and the cell pellet was washed twice by re-suspension in fresh medium followed by centrifugation. The cell suspension was plated in 24-well tissue culture plates (Nunclon; Nunc, Roskilde, Denmark; 2×10^5 cells/well) or in 6-well plates (2×10^6 cells/well) depending upon the end point of the experiment. The cells were cultured at 37° C. in a humidified atmosphere of 5% CO2 and 95% air in serum-free medium. After 1 h, the immature Leydig cells were well attached to the surface of the culture plates, whereas contaminating cells (Sertoli cells, germ cells, precursor Leydig cells) were loosely attached. The cells were washed three times with medium to remove loosely attached cells. At this stage, the cell preparation contains more than 90% immature Leydig cells. Immature Leydig cells cultured in 24-well plates (2×10^5 cells/well) were treated with several doses of oLH for 48 h, and the conditioned media were analyzed for androgen content.
Immature Leydig cells were cultured for 18 h and treated with different concentrations of oLH, SIP and EGF. […] The incubation media were collected and analyzed for total androgens using a radioimmunoassay, as described previously (Dickson et al., 2002). […] All samples were analyzed in the same assay, and the intra-assay coefficient of variation was <10%.

[3] = system: tyrosine phosphorylation of Leydig cell proteins; test: Tyrosine phosphorylation of Leydig cell proteins (phospho-tyrosine immunoblot); assay type: cell-based, rat; settings: Leydig cells treated for 30 minutes; listed as synthetic peptide 2
Experimental: as §2

[4] = system: immature rat Leydig cells; test: Thymidine incorporation assay (DNA synthesis) in immature rat Leydig cells; assay type: cell-based; settings: 3H-thymidine incorporation
Experimental: Immature rat Leydig cells (ILC) were isolated from 10-day old rat testes and cultured with serum-free medium before treatment. Immature rats were sacrificed at 10 days of age, and the testes were removed Immature Leydig cells were isolated and cultured. The decapsulated testes were incubated for 5 min in culture medium containing 0.25 mg collagenase/ml (Type I, Sigma) in shaking water bath. The seminiferous tubules were allowed to settle at unit gravity for 5 min, and the supernatant containing the suspension of interstitial cells was removed. The supernatant was centrifuged at 90×g for 10 min, and the cell pellet was washed twice by re-suspension in fresh medium followed by centrifugation. […] Immature Leydig cells cultured in 24-well plates (2×10^5 cells/well) were treated with several doses of oLH for 48 h, and the conditioned media were analyzed for androgen content.
Immature rat Leydig cells and various cancer cell lines were starved for 48 hours before treatment. […] The incubation media were collected (Leydig cells) and analyzed for total androgen production. ^3H-thymidine (1 μCi/ml) was added to the cells for further 4 hours incubation. […] The filter membranes were then put in vials filled with scintillation fluid, and the radioactivity was measured by a Beckman β-counter.

[5] = system: immature rat Leydig cells and ovarian, prostate and liver cancer cell lines; test: DNA synthesis in Leydig cells and cancer cell lines (summary of FIGS. 8-10); assay type: cell-based
Experimental: as §3, §1

StAR protein = StAR protein expression in rat Leydig cells (Western blotting); assay type: cell-based; settings: Leydig cells treated for 24 hour, listed as synthetic peptide 2

Compound	effect of inhibitor on SIP effects on DNA synthesis (Leydig cells)	activation of PI3-kinase/AKT pathway (AKT phosphorylation) (PI3-kinase/AKT pathway)	activation of PI3-kinase/AKT pathway (AKT phosphorylation) (PI3-kinase/AKT pathway; listed as synthetic peptide 2)	activation of MAP-kinase pathway (Ras, MEK, ERK1/ERK2 phosphorylation) [1]	activation of MAP-kinase pathway (Ras, MEK, ERK1/ERK2 phosphorylation) ([1]; listed as synthetic peptide 2)	DNA synthesis [2]	expression of StAR mRNA (StAR mRNA)	testosterone production compared with purified SIP (rat Leydig cells)	testosterone production (rat Leydig cells; listed as SEQ ID NO:2)	testosterone production (rat Leydig cells; listed as synthetic SIP peptide 2)	tyrosine phosphorylation of cell proteins [3]	DNA synthesis [4]	DNA synthesis in different cells [5]	expression of StAR protein (StAR protein)
COc1cccc(-c2cc(=O)c3ccccc3o2)c1N [PD98059]	blocks the effects of SIP on DNA synthesis													
DVNGGGATLPQPLYQTA [peptide 2]		activated	significant induction of phosphorylation	activated	significant induction of phosphorylation	capable of exerting mitogenic effects	induce the expression of StAR mRNA	not as high as those observed with purified SIP	significant stimulation of testosterone production	stimulation of testosterone production	induces the phosphorylation of several proteins at tyrosine; also recorded: capable of binding to SIP receptors and initiating signaling cascade	capable of inducing proliferation of immature rat Leydig cells	significant stimulation of DNA synthesis	stimulated the induction of StAR protein; also recorded: induce the expression of protein
